Tests used:
[1] = Distribution coefficient, log D of the compound at pH 7.4 by chromatographic method; assay type: physicochemical; conditions: octanol/water
[2] = molecular target: T1, Bromodomain-containing protein 4 (Homo sapiens, UniProt O60885); assay: Binding affinity to BRD4 BD1 (unknown origin) by BROMOscan panel based assay
[3] = molecular target: Transcription initiation factor TFIID subunit 1 (Homo sapiens, UniProt P21675); assay: Binding affinity to TAF1 (unknown origin) by BROMOscan panel based assay
Peregrin = molecular target: T2, Peregrin (Homo sapiens, UniProt P55201); assay: Binding affinity to BRPF1 (unknown origin) by BROMOscan panel based assay
T2 sequence (P55201 whole entry): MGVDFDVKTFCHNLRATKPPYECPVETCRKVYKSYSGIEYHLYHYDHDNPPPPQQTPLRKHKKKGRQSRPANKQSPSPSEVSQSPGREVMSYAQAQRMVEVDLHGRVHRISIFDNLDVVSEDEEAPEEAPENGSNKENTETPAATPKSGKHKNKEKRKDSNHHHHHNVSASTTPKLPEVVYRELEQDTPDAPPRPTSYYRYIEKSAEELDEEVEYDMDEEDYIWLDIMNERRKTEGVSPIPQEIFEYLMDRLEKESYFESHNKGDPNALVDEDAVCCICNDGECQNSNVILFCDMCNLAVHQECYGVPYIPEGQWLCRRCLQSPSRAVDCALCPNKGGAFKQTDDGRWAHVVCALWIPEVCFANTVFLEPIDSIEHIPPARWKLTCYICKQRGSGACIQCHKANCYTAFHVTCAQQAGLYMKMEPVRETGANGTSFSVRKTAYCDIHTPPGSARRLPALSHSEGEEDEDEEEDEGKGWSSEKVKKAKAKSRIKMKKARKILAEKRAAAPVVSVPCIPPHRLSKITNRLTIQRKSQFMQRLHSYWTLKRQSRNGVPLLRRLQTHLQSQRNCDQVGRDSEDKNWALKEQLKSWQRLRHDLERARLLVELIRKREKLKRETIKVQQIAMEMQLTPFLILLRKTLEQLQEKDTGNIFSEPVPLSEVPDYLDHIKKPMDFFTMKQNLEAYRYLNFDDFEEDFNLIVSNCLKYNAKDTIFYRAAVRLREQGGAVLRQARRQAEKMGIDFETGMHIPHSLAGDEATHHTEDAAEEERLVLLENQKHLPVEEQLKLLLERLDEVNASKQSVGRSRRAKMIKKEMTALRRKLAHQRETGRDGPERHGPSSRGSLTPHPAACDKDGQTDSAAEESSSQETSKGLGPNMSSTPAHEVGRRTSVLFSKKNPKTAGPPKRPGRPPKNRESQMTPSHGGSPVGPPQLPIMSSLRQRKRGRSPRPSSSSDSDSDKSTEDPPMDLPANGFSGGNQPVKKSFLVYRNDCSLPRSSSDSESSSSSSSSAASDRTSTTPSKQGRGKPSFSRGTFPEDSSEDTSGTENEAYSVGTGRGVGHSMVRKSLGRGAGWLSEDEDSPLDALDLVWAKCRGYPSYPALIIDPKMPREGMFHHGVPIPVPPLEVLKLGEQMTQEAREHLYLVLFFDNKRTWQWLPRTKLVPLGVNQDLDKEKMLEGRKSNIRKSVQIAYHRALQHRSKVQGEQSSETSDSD

[4] = molecular target: Bromodomain-containing protein 1 (Homo sapiens, UniProt O95696); assay: Binding affinity to BRPF2 (unknown origin) by BROMOscan panel based assay
[5] = molecular target: Bromodomain and PHD finger-containing protein 3 (Homo sapiens, UniProt Q9ULD4); assay: Binding affinity to BRPF3 (unknown origin) by BROMOscan panel based assay
[6] = molecular target: Nucleosome-remodeling factor subunit BPTF (Homo sapiens, UniProt Q12830); assay: Binding affinity to BPTF in human HUT78 cells incubated for 45 mins by mass spectrometry based bromosphere chemoproteomic assay; assay type: cell-based
[7] = molecular target: T3, Bromodomain-containing protein 3 (Homo sapiens, UniProt Q15059); assay: Binding affinity to BRD3 in human HUT78 cells incubated for 45 mins by mass spectrometry based bromosphere chemoproteomic assay; assay type: cell-based
[8] = molecular target: T1, Bromodomain-containing protein 4; assay: Binding affinity to BRD4 in human HUT78 cells incubated for 45 mins by mass spectrometry based bromosphere chemoproteomic assay; assay type: cell-based
[9] = molecular target: Bromodomain-containing protein 7 (Homo sapiens, UniProt Q9NPI1); assay: Binding affinity to BRD7 in human HUT78 cells incubated for 45 mins by mass spectrometry based bromosphere chemoproteomic assay; assay type: cell-based
[10] = molecular target: T4, Bromodomain-containing protein 9 (Homo sapiens, UniProt Q9H8M2); assay: Binding affinity to BRD9 in human HUT78 cells incubated for 45 mins by mass spectrometry based bromosphere chemoproteomic assay; assay type: cell-based
T4 sequence (Q9H8M2 whole entry): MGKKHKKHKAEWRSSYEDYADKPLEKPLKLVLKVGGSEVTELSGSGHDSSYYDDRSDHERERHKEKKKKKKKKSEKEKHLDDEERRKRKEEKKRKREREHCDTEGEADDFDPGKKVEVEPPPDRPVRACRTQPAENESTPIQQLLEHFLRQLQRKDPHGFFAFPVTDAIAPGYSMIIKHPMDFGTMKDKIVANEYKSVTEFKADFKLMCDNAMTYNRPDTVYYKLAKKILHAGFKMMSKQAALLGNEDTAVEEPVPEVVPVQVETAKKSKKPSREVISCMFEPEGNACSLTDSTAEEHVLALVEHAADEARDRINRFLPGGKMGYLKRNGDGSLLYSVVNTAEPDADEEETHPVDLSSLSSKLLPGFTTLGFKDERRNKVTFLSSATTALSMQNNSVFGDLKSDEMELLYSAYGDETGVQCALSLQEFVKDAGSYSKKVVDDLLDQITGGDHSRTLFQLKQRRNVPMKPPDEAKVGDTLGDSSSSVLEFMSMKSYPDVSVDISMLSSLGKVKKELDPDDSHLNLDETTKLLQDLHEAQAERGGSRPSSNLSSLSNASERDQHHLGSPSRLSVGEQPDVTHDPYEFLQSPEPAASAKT

[11] = molecular target: Histone acetyltransferase KAT2B (Homo sapiens, UniProt Q92831); assay: Binding affinity to KAT2B in human HUT78 cells incubated for 45 mins by mass spectrometry based bromosphere chemoproteomic assay; assay type: cell-based
Protein polybromo-1 = Protein polybromo-1 (Homo sapiens, UniProt Q86U86); assay: Binding affinity to PBRM1 in human HUT78 cells incubated for 45 mins by mass spectrometry based bromosphere chemoproteomic assay; assay type: cell-based
[12] = molecular target: T5, Bromodomain testis-specific protein (Homo sapiens, UniProt Q58F21); assay: Binding affinity to BRDt containing BD1 bromodomains (unknown origin) by TR-FRET assay
[13] = molecular target: Bromodomain-containing protein 2 (Homo sapiens, UniProt P25440); assay: Binding affinity to BRD2 containing BD2 bromodomains (unknown origin) by TR-FRET assay
[14] = molecular target: T3, Bromodomain-containing protein 3; assay: Binding affinity to BRD3 containing BD2 bromodomains (unknown origin) by TR-FRET assay
[15] = molecular target: T5, Bromodomain testis-specific protein; assay: Binding affinity to BRDt containing BD2 bromodomains (unknown origin) by TR-FRET assay
[16] = molecular target: Bromodomain-containing protein 4 (Homo sapiens, UniProt O60885, Y390A)
physchem = conditions: phosphate buffered saline, pH 7.4, solubility
Description: Solubility of the compound in phosphate buffered saline at pH 7.4 after 1 hr by CLND method

T3 sequence (Q15059 whole entry): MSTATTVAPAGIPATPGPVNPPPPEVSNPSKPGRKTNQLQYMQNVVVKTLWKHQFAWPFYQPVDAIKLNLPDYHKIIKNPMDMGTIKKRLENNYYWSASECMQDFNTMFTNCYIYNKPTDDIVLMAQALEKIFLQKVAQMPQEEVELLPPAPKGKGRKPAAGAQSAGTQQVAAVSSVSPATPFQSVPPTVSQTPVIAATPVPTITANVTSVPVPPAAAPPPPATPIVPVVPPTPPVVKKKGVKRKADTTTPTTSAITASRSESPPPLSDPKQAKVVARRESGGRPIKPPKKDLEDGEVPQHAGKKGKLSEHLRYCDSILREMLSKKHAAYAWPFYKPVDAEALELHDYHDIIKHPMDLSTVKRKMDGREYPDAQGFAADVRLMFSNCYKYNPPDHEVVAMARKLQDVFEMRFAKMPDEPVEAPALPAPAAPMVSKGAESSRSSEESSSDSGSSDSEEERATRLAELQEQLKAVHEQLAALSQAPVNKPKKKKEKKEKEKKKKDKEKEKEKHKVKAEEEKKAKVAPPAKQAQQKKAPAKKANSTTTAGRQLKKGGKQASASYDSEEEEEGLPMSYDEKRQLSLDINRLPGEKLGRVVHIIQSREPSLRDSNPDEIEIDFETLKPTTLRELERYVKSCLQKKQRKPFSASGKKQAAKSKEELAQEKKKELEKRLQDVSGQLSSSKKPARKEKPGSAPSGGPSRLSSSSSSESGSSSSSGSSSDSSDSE
Chain of Bromodomain-containing protein 2 (P25440 whole entry): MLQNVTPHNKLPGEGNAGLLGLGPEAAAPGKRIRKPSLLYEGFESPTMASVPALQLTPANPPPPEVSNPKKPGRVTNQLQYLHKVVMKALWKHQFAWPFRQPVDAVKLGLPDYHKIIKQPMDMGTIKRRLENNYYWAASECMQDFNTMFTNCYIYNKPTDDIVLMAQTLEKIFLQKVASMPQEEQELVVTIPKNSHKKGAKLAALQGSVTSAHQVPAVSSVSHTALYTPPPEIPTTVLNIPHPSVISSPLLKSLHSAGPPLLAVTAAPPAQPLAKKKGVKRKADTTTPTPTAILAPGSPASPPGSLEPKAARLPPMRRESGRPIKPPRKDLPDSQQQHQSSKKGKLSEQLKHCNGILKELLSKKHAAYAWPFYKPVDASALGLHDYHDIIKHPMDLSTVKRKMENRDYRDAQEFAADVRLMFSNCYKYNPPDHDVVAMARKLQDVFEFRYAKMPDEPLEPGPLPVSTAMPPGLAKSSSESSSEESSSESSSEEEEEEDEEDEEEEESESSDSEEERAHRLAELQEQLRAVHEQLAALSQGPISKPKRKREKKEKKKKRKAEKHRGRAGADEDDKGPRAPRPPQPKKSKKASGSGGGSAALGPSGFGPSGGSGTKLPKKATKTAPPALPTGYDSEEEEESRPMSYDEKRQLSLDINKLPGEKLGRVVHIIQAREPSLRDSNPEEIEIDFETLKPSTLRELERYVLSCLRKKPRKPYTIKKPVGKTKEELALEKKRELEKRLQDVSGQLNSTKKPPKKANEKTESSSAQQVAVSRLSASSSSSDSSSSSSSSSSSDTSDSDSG
Chain of Bromodomain-containing protein 7 (Q9NPI1 whole entry): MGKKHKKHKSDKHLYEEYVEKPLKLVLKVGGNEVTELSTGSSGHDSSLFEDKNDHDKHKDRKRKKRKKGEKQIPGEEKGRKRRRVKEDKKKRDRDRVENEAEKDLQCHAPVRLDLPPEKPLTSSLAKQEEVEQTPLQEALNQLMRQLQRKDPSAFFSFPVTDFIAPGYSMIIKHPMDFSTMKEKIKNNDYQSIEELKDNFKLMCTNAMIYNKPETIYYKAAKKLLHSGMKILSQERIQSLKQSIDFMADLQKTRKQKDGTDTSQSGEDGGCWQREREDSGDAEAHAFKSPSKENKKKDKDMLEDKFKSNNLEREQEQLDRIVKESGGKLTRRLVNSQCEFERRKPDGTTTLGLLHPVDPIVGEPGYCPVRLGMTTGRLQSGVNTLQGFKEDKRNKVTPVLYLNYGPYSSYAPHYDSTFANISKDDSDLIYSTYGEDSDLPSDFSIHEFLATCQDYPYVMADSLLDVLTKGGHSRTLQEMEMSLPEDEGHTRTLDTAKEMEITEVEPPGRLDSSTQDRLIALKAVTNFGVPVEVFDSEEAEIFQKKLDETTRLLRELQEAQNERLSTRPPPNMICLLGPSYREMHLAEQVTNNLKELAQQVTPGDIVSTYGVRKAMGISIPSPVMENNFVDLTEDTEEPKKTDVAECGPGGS
Chain of Transcription initiation factor TFIID subunit 1 (P21675 whole entry): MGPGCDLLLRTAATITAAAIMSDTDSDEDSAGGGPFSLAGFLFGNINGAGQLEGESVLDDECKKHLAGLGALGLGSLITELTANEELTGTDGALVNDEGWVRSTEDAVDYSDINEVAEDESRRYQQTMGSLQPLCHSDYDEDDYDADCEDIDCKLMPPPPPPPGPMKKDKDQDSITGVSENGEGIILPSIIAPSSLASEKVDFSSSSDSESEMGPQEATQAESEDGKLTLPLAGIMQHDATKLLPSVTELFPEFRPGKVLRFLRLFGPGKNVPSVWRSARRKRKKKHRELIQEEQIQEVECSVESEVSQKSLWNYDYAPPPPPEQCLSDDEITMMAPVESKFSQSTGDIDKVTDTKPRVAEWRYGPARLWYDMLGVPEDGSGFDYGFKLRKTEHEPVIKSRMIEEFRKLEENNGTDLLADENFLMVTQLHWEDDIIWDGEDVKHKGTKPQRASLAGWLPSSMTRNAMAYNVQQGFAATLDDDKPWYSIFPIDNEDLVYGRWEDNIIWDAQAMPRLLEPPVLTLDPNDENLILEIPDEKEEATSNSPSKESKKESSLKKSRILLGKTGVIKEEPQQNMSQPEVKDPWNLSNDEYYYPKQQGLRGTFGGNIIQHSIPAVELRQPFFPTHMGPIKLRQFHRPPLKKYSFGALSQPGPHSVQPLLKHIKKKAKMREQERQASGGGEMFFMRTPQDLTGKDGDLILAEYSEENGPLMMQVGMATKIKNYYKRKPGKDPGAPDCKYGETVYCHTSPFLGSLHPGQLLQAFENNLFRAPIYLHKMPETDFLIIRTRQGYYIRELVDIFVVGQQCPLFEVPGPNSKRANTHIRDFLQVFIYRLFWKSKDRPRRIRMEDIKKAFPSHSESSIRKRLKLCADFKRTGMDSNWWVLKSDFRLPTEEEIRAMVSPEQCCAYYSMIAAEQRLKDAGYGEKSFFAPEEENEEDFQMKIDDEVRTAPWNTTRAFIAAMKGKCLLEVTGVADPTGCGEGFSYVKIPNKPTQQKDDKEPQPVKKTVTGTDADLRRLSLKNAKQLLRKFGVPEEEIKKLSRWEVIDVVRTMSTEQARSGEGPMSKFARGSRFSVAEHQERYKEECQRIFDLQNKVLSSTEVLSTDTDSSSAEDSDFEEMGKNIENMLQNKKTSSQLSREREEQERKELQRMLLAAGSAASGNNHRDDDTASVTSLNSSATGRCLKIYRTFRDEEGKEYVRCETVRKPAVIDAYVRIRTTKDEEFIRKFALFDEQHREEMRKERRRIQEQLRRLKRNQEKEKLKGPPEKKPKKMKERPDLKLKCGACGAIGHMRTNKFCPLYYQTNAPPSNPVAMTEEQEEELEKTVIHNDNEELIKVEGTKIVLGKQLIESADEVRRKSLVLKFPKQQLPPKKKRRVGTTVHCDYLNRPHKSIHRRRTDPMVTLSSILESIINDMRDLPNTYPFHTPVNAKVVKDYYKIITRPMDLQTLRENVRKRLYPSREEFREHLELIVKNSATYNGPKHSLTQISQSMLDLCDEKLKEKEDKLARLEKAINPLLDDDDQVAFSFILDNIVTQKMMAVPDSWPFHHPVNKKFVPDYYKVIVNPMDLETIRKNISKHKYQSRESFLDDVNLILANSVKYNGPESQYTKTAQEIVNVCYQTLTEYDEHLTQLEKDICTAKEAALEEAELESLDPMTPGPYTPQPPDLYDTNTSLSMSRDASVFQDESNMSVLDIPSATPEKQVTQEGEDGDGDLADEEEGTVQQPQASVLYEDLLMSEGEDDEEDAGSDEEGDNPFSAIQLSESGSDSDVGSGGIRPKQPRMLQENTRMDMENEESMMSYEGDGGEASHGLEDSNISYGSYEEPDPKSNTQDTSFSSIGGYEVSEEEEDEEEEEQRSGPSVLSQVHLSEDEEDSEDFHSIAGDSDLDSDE
Chain of Histone acetyltransferase KAT2B (Q92831 whole entry): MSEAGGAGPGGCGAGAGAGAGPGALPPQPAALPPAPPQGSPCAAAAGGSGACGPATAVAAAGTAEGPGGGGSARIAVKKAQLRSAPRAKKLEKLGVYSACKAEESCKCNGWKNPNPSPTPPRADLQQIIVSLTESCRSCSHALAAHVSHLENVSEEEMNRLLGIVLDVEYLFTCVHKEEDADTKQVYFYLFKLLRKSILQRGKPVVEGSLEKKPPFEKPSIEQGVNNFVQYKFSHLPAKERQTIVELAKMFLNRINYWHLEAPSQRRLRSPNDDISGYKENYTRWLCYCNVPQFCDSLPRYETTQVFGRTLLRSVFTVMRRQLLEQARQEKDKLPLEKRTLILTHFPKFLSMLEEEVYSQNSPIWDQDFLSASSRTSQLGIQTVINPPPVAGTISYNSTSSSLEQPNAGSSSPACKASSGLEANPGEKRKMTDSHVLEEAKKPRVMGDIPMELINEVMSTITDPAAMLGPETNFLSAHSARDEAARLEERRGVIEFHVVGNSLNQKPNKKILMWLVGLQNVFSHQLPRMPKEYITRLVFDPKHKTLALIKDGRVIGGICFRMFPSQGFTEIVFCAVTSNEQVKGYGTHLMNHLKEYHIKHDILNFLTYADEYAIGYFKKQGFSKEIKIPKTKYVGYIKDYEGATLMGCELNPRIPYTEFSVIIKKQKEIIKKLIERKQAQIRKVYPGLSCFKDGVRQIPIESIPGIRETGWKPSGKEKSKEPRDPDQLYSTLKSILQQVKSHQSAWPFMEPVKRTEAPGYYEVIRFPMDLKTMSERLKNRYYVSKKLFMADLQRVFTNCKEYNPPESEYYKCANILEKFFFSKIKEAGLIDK

chromatographic logD [1]: 2.3
Ki [2]: 7.94 µM
Ki [3]: 0.0501 µM
Ki (Peregrin): 5.01 µM
Ki [4]: 0.398 µM
Ki [5]: 0.794 µM
Kd [6]: > 100 µM
Kd [7]: > 100 µM
Kd [8]: 20 µM
Kd [9]: 31.6 µM
Kd [10]: 15.8 µM
Kd [11]: > 100 µM
Kd (Protein polybromo-1): > 100 µM
IC50 [12]: > 50.1 µM
IC50 [13]: > 50.1 µM
IC50 [14]: > 50.1 µM
IC50 [15]: > 50.1 µM
IC50 [16]: 79.4 µM
solubility kinetic at 1 h (physchem): ≥ 341 µM
SMILES: Cc1cncc(-c2cnc(N[C@@H]3CCN(C)C[C@H]3OCC3CCS(=O)(=O)CC3)c3[nH]c(=O)c(C)cc23)c1

Reference: ChEMBL document CHEMBL3588744, “Structure-Based Optimization of Naphthyridones into Potent ATAD2 Bromodomain Inhibitors” (J Med Chem, 2015)
